Results on two substances are retold here after patent US8796415B2, “Inhibitors of guanine exchange factors and their use as anticancer drugs” (Centre National de la Recherche Scientifique, priority 2009, dated 2014).

Ends that are not written are not given here.

In series [1] the target is T1, Trio DH2-PH2 (Homo sapiens, UniProt O75962).
T1 construct: made in house
In words: Yeast two-hybrid screening for binding to Trio DH2-PH2. Particulars: 3-AT 80-120 mM. From the text: The inventors next reasoned that peptides that would bind stronger to the GEF domain may also be better at inhibiting its activity. The inventors thus generated a library of peptide aptamers derived from TRIPα by random mutagenesis, which the inventors screened for GEF binding in a yeast two-hybrid assay. The inventors chose a system in which the threshold of interaction detection can be modulated by the concentration of the 3-aminotriazole (3-AT) drug (Sardet et al., 1995). Since Tgat is toxic in yeast, the inventors used Trio DH2-PH2 to screen this TRIP-like peptide library. […] These clones were then produced as GST fusions and analyzed for their inhibition of Trio DH2-PH2, using the [3H]-GDP dissociation assay.
An aptamer library derived from TRIPα was created by PCR-based random mutagenesis of TRIPα inserted into the yeast two-hybrid vector pPC86. Sequencing of a statistically representative number of clones yielded a mutation rate of ˜3 mutations/clone. 6×10^5 independent clones were screened for interactors, using Trio DH2-PH2 (in the pPC97 vector) as a bait, in the MAV 103 yeast strain, on high concentrations of 3-AT (3-amino-triazol, Sigma) (80-120 mM). Selected peptides were then produced as GST-fusions and analyzed for their inhibition of Trio DH2-PH2 using the [3H]-GDP dissociation assay.

Series [2] concerns the target T1, Trio DH2-PH2. The note with it: Schmidt et al., 2002; cited from earlier work.
Series [3] concerns the target T2, Lbc (Homo sapiens, UniProt Q12802).
T2 construct: GST-Dbl (DH-PH domain), GST-Lbc (DH-PH), GST-p63RhoGEF (DH domain) and GST-RhoG were purified as described previously; GST (N); made in house
T2 sequence (Q12802 1994-2333): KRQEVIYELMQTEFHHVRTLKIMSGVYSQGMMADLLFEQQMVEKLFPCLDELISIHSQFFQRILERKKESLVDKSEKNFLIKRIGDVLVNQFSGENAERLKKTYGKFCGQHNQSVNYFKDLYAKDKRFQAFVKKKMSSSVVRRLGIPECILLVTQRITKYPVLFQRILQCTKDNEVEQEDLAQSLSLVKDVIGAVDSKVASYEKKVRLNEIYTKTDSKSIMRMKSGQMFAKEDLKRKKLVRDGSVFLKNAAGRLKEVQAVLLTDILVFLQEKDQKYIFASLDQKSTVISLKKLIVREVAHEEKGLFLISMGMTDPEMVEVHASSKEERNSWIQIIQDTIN
Particulars: shown previously (Schmidt et al., 2002 and unpublished results); cited from earlier work.

For series [4], the system named is Dbl. Particulars: shown previously (Schmidt et al., 2002 and unpublished results); cited from earlier work.
Sequence of Dbl (P10911 495-809 limits assumed): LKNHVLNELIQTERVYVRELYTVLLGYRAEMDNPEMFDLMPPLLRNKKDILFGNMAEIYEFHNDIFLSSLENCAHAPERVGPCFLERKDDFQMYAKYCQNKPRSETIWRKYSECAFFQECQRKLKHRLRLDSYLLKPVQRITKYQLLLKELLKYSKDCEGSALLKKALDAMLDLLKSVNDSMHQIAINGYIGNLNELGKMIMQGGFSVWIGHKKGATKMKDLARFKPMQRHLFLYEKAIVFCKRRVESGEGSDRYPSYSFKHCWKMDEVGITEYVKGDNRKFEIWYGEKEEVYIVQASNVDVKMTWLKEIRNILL
Series [5] has as its system Dbl mediated RhoA activation. Nature of the series: RhoA activation assay (GST-RBD pull-down) in NIH3T3 cells expressing Dbl. The note with it: GFP-tagged peptide. Format: cell-based. As to the method: FIG. 8 represents the effect of GFP-TRIPE32G on RhoA activation induced by Dbl (left panel) or Tgat (right panel) in NIH3T3 cells, assayed by GST-RBD pulldown. The levels of GTP-bound and total RhoA protein are shown in the upper two panels. Expression levels of Myc-Dbl and of all GFP-tagged proteins are shown in the lower two panels.
The level of GTP-bound RhoA was measured by a GST pulldown assay as described (Schmidt et al., 2002). Briefly, cell lysates were incubated with glutathione beads coated with the recombinant Rho-binding domain (RBD) of the RhoA specific effector Rhotekin (Cytoskeleton Inc.).

The subject of series [6] is NIH3T3 cells stably expressing GFP-Tgat. In words: Tumor formation in Balb/c nude mice grafted with NIH3T3 cells expressing Tgat. Format: in vivo. As to the method:
FIG. 10A represents tumor formation in Balb/c nude mice. NIH3T3 cells stably expressing GFP-Tgat/GST or GFP-Tgat/GSTTRIP E32G were injected subcutaneously into the flanks of Balb/c nude mice and tumor volume was measured every week. The graph is representative of the three independent assays that were performed.
FIG. 10B represents the tumor weights (in grams) after the experiments. Ten weeks post graft, mice were euthanised, tumors were excised and weighed, and the mean tumor weight was plotted on the graph. (*) A paired Student's t-test was performed, matching the samples for each mouse, and the P value was 0.019. Error bars represent standard deviation in all graphs.
Female Balb/c nu/nu mice were purchased from Charles River France and used at 6-8 weeks of age. 12 Balb/c nu/nu mice were subcutaneously grafted with 2×10^6 cells of each cell line on both sides (Tgat on the left and Tgat+TRIPE32G on the right flank of the leg). The appearance of tumors was scored visually every week. 10 weeks post graft, mice were euthanized and tumors excised and weighed. mRNA and protein levels in the tumors were verified by RT-PCR and Western blot (data not shown).

The test system of series [7] is Tgat-expressing NIH3T3 cells. In words: Cell proliferation or apoptosis (data not shown). Format: cell-based.

For the substance “AREGADGAICGYNLATLVMLGPSERVFCPLCEPCSSDIYELM [TRIPα]”, in series [1], the “interaction with Trio DH2-PH2 in yeast two-hybrid assay” value was “no interaction”. Moreover, in series [2], the “inhibition of Trio DH2-PH2 activation of RhoA” value was “inhibits its activation of RhoA both in vitro and in intact cells”. For the same substance, the “activity on Lbc” value in series [3] is listed as “not active”. Besides, the “activity on Dbl” value in series [4] is listed as “not active”.
Take “GST-TRIPE32G (AREGADGAICGYNLATLVMLGPSERVFCPLCGPCSSDIYELM; cysteine pairing not given here; also: GST fusion)”: the “inhibition of oncogenic Dbl mediated RhoA activation in intact cells” value in series [5] is listed as “not able to inhibit RhoA activation by Dbl”. Besides, the “number of mice with tumors” value in series [6] (12 mice grafted subcutaneously, peptide co-expressed with Tgat, Tgat alone ten out of twelve) is “seven”. Further, the “delay in the formation of tumors” value in series [6] (peptide co-expressed with Tgat, versus Tgat alone) was “about three”. In addition, in series [6] (ten weeks post graft, paired Student's t-test P value 0.019), the “weight of the tumors” value was “significantly reduced”. The “non-specific effect on cell proliferation or apoptosis” value in series [7] was “not due to a non-specific effect of TRIPE32G on cell proliferation or apoptosis”.
